# Measurements taken from ChEMBL document CHEMBL1144464, “Mutations in fusA associated with posttherapy fusidic acid resistance in Clostridium difficile” (2007).
# Assays:
# Format in all cases: functional
# Clostridioides difficile [1] = experiment: Antibacterial activity against fusidic acid resistant Clostridium difficile 107:1 isolate after 1 day; conditions: 24 h
# Clostridioides difficile [2] = experiment: Antibacterial activity against fusidic acid resistant Clostridium difficile 72:1 isolate after 1 day; conditions: 24 h
# Clostridioides difficile [3] = experiment: Antibacterial activity against fusidic acid resistant Clostridium difficile 62:3 isolate with fusA A375 deletion after 35 to 40 days
# Clostridioides difficile [4] = experiment: Antibacterial activity against fusidic acid resistant Clostridium difficile 248:1 isolate after 1 day; conditions: 24 h
# Clostridioides difficile [5] = experiment: Antibacterial activity against fusidic acid resistant Clostridium difficile 73:1 isolate after 1 day; conditions: 24 h
# Clostridioides difficile [6] = experiment: Antibacterial activity against fusidic acid resistant Clostridium difficile 100:2 isolate with fusA V119A mutation after 8 to 13 days
# Clostridioides difficile [7] = experiment: Antibacterial activity against fusidic acid resistant Clostridium difficile 107:3 isolate with fusA A459R mutation after 35 to 40 days
# Clostridioides difficile [8] = experiment: Antibacterial activity against fusidic acid resistant Clostridium difficile 248:3 isolate with fusA H455R mutation after 35 to 40 days
# Clostridioides difficile [9] = experiment: Antibacterial activity against fusidic acid resistant Clostridium difficile 100:1 isolate after 1 day; conditions: 24 h
# Clostridioides difficile [10] = experiment: Antibacterial activity against fusidic acid resistant Clostridium difficile 51:2 isolate with fusA S449P mutation after 8 to 13 days
# Clostridioides difficile [11] = experiment: Antibacterial activity against fusidic acid resistant Clostridium difficile 26:2 isolate with fusA D432N mutation after 8 to 13 days
# Clostridioides difficile [12] = experiment: Antibacterial activity against fusidic acid resistant Clostridium difficile 58:1 isolate with fusA H455Q mutation after 1 day; conditions: 24 h
# Clostridioides difficile [13] = experiment: Antibacterial activity against fusidic acid resistant Clostridium difficile 58:2 isolate with fusA H455Q mutation after 8 to 13 days
# Clostridioides difficile [14] = experiment: Antibacterial activity against fusidic acid resistant Clostridium difficile 49:1 isolate after 1 day; conditions: 24 h
# Clostridioides difficile [15] = experiment: Antibacterial activity against fusidic acid resistant Clostridium difficile 57:1 isolate after 1 day; conditions: 24 h
# Clostridioides difficile [16] = experiment: Antibacterial activity against fusidic acid resistant Clostridium difficile 62:1 isolate after 1 day; conditions: 24 h
# Clostridioides difficile [17] = experiment: Antibacterial activity against fusidic acid resistant Clostridium difficile 63:1 isolate after 1 day; conditions: 24 h
# Clostridioides difficile [18] = experiment: Antibacterial activity against fusidic acid resistant Clostridium difficile 62:2 isolate after 8 to 13 days
# Clostridioides difficile [19] = experiment: Antibacterial activity against fusidic acid resistant Clostridium difficile 26:3 isolate with fusA M16I and H455N mutation after 35 to 40 days
# Clostridioides difficile [20] = experiment: Antibacterial activity against fusidic acid resistant Clostridium difficile 63:2 isolate with fusA T434I after 8 to 13 days
# Clostridioides difficile [21] = experiment: Antibacterial activity against fusidic acid resistant Clostridium difficile 51:1 isolate after 1 day; conditions: 24 h
# Clostridioides difficile [22] = experiment: Antibacterial activity against fusidic acid resistant Clostridium difficile 73:2 isolate with fusA I459R mutation after 8 to 13 days
# Clostridioides difficile [23] = experiment: Antibacterial activity against fusidic acid resistant Clostridium difficile 57:3 isolate with fusA S116L and A374V mutation after 35 to 40 days
# Clostridioides difficile [24] = experiment: Antibacterial activity against fusidic acid resistant Clostridium difficile 72:2 isolate with fusA S116L and A374V mutation after 8 to 13 days
# Clostridioides difficile [25] = experiment: Antibacterial activity against fusidic acid resistant Clostridium difficile 26:1 isolate after 1 day; conditions: 24 h
# Clostridioides difficile [26] = experiment: Antibacterial activity against fusidic acid resistant Clostridium difficile 49:3 isolate with fusA S116L and A374V mutation after 35 to 40 days
# Clostridioides difficile [27] = experiment: Antibacterial activity against fusidic acid resistant Clostridium difficile 49:2 isolate after 8 to 13 days
smiles,measurement,setting,value
CC(=O)O[C@H]1C[C@@]2(C)[C@@H](C[C@@H](O)[C@H]3[C@@]4(C)CC[C@@H](O)[C@@H](C)[C@@H]4CC[C@@]32C)/C1=C(\CCC=C(C)C)C(=O)O [FUSIDIC ACID],MIC,Clostridioides difficile [1],0.19 µg/mL
same,MIC,Clostridioides difficile [2],0.25 µg/mL
same,MIC,Clostridioides difficile [3],4 µg/mL
same,MIC,Clostridioides difficile [4],0.125 µg/mL
same,MIC,Clostridioides difficile [5],0.5 µg/mL
same,MIC,Clostridioides difficile [6],> 256 µg/mL
same,MIC,Clostridioides difficile [7],> 256 µg/mL
same,MIC,Clostridioides difficile [8],> 256 µg/mL
same,MIC,Clostridioides difficile [9],0.38 µg/mL
same,MIC,Clostridioides difficile [10],> 256 µg/mL
same,MIC,Clostridioides difficile [11],> 256 µg/mL
same,MIC,Clostridioides difficile [12],> 256 µg/mL
same,MIC,Clostridioides difficile [13],> 256 µg/mL
same,MIC,Clostridioides difficile [14],0.25 µg/mL
same,MIC,Clostridioides difficile [15],0.38 µg/mL
same,MIC,Clostridioides difficile [16],0.25 µg/mL
same,MIC,Clostridioides difficile [17],0.25 µg/mL
same,MIC,Clostridioides difficile [18],0.25 µg/mL
same,MIC,Clostridioides difficile [19],> 256 µg/mL
same,MIC,Clostridioides difficile [20],64 µg/mL
same,MIC,Clostridioides difficile [21],0.25 µg/mL
same,MIC,Clostridioides difficile [22],> 256 µg/mL
same,MIC,Clostridioides difficile [23],> 256 µg/mL
same,MIC,Clostridioides difficile [24],> 256 µg/mL
same,MIC,Clostridioides difficile [25],0.38 µg/mL
same,MIC,Clostridioides difficile [26],> 256 µg/mL
same,MIC,Clostridioides difficile [27],0.25 µg/mL
